US8486994B2, “Prodrugs of substituted 1,3-dioxanes and their uses” (Evolva SA, priority 2007, dated 2013)
Read-outs that look alike come from different tables or passages of the source.

Columns and labels:
[1] = Pharmacokinetics (plasma exposure) after i.v. or p.o. dosing, non-compartmental analysis; format: in vivo, male Wistar rats; details: rat; for half-life: read-out: Terminal Half-life elimination, t½z
Description: Animals were fasted overnight before dosing p.o. (gavage or capsule) or by bolus intravenous application. Blood samples (approx. 0.15 ml) were taken at different time points into heparinized tubes by automated blood sampling. Plasma was prepared and stored frozen until bioanalysis.
• to an aliquot of 10 μL plasma 30 μL ACN/EtOH (50/50, v/v) are added • vortex • 20 min 14000 rpm approx. 8° C. • Supernatant transfer in HPLC vial Liquid Chromatography
The samples were analyzed by mass spectroscopy using ESI (negative ion mode) as the ionization mode. Selected Reaction Monitoring:
The quantitatively measured plasma concentration-time data were subjected to non-compartmental analysis (NCA) using the PCModfit program (version 3.00) for Windows® running with Excel 2003 (http://home2.btconnect.com/Gamms/PCModfit/; Allen, G. D. ‘Modfit: a pharmacokinetics computer program’ Biopharm. and Drug Disp., Vol. 11, 477-498, 1990). The points selected in each profile for half-life estimation using numerical analysis, where possible, corresponded to the final linear phase as visually assessed from ln(concentration) vs. time plots. The terminal elimination rate constant (λz) for each profile was numerically estimated using iteratively re-weighted non-linear least squares analysis with a weighting factor of 1/Ĉ^2. The area under the concentration-time curve to the last actual time point (AUC0-t) and infinity (AUC0-∞) for each data set were estimated using a linear (ascending) trapezoidal method. The extrapolated area to infinity (AUC0-∞) was estimated, where possible, using AUC0-t and the predicted value (Ĉn) at the last time point for each profile.
[formula] [formula] The Ci values correspond to the actual concentrations of drug at time ti for n data points. The C0 value was extrapolated using the first 4 time points.

[2] = target: T1, Thromboxane synthase (Homo sapiens, UniProt P24557); experiment: Human Platelet Thromboxane Synthase Assay; format: biochemical
T1 sequence (P24557 1-533): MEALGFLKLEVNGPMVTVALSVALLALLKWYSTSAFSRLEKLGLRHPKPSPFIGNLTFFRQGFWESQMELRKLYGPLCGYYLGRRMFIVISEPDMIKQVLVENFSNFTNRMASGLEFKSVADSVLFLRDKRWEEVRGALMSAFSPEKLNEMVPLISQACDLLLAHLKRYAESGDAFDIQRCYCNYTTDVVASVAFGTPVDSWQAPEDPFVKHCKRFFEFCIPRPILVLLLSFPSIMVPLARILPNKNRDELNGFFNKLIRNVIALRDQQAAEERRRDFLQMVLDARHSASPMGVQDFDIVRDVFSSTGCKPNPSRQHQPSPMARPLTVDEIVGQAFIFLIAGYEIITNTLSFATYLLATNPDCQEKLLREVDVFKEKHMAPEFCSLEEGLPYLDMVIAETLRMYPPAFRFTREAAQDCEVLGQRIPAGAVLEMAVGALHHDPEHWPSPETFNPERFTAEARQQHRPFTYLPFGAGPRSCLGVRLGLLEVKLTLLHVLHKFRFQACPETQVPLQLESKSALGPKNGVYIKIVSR
Description: Using these experimental conditions Substrate: 10 μM PGH2, Vehicle: 1% DMSO
Pre-incubation time, temp: 15 min at 25° C., Incubation time, temp: 3 min at 25° C.
1. Imidazole derivatives. J Med Chem. 24(10):1139-48.
(§1) The data were transformed to semi-log and then analysed using non-linear regression to a four-parameter dose-response curve Y=Bottom+(Top−Bottom)/(1+10^((Log EC50−X)*HillSlope)) using the log(agonist) vs. response—Variable slope function of GraphPad Prism software (http://graphpad.com/help/prism5/prism5help.html?usingnonlinear_regression_step_by_s.ht m).

[3] = target: T2, Thromboxane receptor (TP) (Homo sapiens, UniProt P21731); experiment: TP Receptor Radioligand Binding ([3H] SQ-29548); details: Human recombinant HEK-293 cells
T2 construct: expressed in transfected cells; host or cells: HEK-293
T2 sequence (P21731 1-343): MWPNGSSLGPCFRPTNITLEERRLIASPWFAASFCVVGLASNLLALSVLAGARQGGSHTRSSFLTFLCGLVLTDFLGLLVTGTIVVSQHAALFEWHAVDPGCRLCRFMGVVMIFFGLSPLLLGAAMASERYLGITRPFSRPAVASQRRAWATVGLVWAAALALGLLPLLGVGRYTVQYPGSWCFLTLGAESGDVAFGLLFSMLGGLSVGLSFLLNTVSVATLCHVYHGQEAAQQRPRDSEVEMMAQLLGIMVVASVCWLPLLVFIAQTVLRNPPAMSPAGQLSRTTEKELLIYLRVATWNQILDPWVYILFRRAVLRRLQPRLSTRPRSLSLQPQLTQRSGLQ
Description: Using these experimental conditions Human recombinant HEK-293 cells, Ligand: 5 nM [^3H] […] J Pharmacol Exp Ther. 245(3):786-92792, and Saussy D L Jr, Mais D E, Burch R M and Halushka P V (1986) Identification of a putative thromboxane A2/prostaglandin H2 receptor in human platelet membranes. J Biol Chem. 261(7):3025-9.
as §1

[4] = test system: arterial thrombosis in a mouse model; experiment: FeCl3 arterial thrombosis model (femoral artery, laser Doppler blood flow); format: in vivo, mice
Description: • Vehicle (DMSO/PEG 400, 5/95) • Dose of 1, 3, 10, 30, 100 and 300 mg/kg of Prodrug 3 in vehicle • Saline • Aspirin (dose of 100 mg and 600 mg/kg in vehicle) • Aspirin (Aspégic from Sanofi Synthelabo; dissolved in Saline) • Clopidogrel (Plavix from Sanofi Pharma; dissolved in H2O)
The solutions are diluted 3.3-fold in saline and 100 μl/25 g is injected. Thus, the above-mentioned doses of 100 and 300 mg/kg of compound correspond to final doses of 30 and 100 mg/kg.
Solutions are injected (100 μl/25 g body weight) i.v. in the tail vein over 2 min to obtain doses of each compound of 30 mg/kg and 100 mg/kg. Aspirin is given the same way at a dose of 200 mg/kg. Clopidogrel is administered by oral gavage at a dose of 20 mg/kg at 6-7 hours prior to the experiment. The animals assigned to each group are matched for body weight. Mice are typically 8-10 weeks old males and are in a 100% Swiss genetic background.
The flow in each image is expressed as a percentage of that at the contralateral side, and data are averaged for all 120 images to determine total flow. The same analysis is performed for 10 min intervals (which gives essentially the same information as the area under the curve). […] Flow before treatment is recorded as 100%, and that in occluded arteries as 0%. At the end of the experiment, blood is collected on 0.01M citrate buffer by heart puncture for determination of blood cell counts. Plasma is prepared by centrifugation and stored at −20° C. for determination of drug levels.
Statistical analysis for differences between two groups is performed by non-parametric Student t-test. Occlusion times >30 min were considered equal to 30 min for statistical analysis. Significance is set at p<0.05.

[5] = p.o., 10 mg/kg, solid in capsules
[6] = i.v., 3.53 mg/kg, DMSO/PEG400 (5%/95%)
[7] = i.v., 3.56 mg/kg, DMSO/PEG400/PBS 1X (5%/30%/65%)

Q: With `O=C(O)CC/C=C\C[C@@H]1CO[C@H](c2ccccc2Cl)O[C@@H]1c1ccccc1O` [drawing 24] as the molecule, how does the “Cmax (ng/ml)/Dose (mg/kg)” value [1, 5] read?
A: Its value is 115 ± 123 (ng/ml)/Dose (mg/kg).

Q: What about the “Lin-AUC (0-∞) (ng•min/ml)/Dose (mg/kg)” value [1, 5] of the same molecule?
A: The value was 17352 ± 14479 (ng•min/ml)/Dose (mg/kg).

Q: What about the T-Last [1, 5] of the same molecule?
A: Its T-Last is 8 to 12 h.

Q: And the “Terminal Half-life elimination, t½z” value [1, 5]?
A: The value was 2.22 ± 0.75 h.

Q: And the Tmax [1, 5]?
A: Its Tmax is 3 ± 2.12 h.

Q: With `COc1ccccc1[C@H]1O[C@@H](c2ccccc2Cl)OC[C@H]1C/C=C\CCC(=O)O` [Compound 5, (Z)-6-((2S,4S,5R)-2-(2-chlorophenyl)-4-(2-methoxyphenyl)-1,3-dioxan-5-yl)hex-4-enoic acid] as the molecule, how does the IC50 [2] read?
A: The IC50 was 20400 nM.

Q: And the inhibition at 30 µM ([2]; at 30 μM)?
A: Its inhibition at 30 µM is 62%.

Q: What about the IC50 [3] of the same molecule?
A: The IC50 was 23.4 nM.

Q: What about the Ki [3] of the same molecule?
A: Its Ki is 15.3 nM.

Q: With `COc1ccccc1[C@@H]1O[C@H](c2ccccc2Cl)OC[C@@H]1C/C=C\CCC(=O)O` [Compound 4, (Z)-6-((2R,4R,5S)-2-(2-chlorophenyl)-4-(2-methoxyphenyl)-1,3-dioxan-5-yl)hex-4-enoic acid] as the molecule, how does the IC50 [2] read?
A: Its IC50 is 17500 nM.

Q: What about the IC50 [3] of the same molecule?
A: The IC50 was 1870 nM.

Q: And the Ki [3]?
A: The Ki was 1220 nM.

Q: Which occlusion time ([4]; 20 mg/kg oral gavage 6-7 hours prior to the experiment) does the source give for `COC(=O)[C@H](c1ccccc1Cl)N1CCc2sccc2C1` [Clopidogrel] here?
A: The occlusion time was “totally prevents occlusion within 30 min in 6/7 experiments”.

Q: What about the total blood flow ([4]; 20 mg/kg oral gavage 6-7 hours prior, versus vehicle) of the same molecule?
A: Its total blood flow is “significantly improved total blood flow”.

Q: For `COc1ccccc1[C@H]1OC(c2ccccc2Cl)OC[C@H]1C/C=C\CCC(=O)O` (stereo partly shown) [Prodrug 3], which total blood flow ([4]; 10 mg/kg in vehicle, i.v.) is on record?
A: The total blood flow was “no effect on total blood flow”.

Q: What about the occlusion time ([4]; 30 mg/kg in vehicle (DMSO/PEG 400), i.v.) of the same molecule?
A: Its occlusion time is “prolongs the occlusion time as compared to aspirin (p=0.024) and the parent compound, but has no effect as compared to vehicle”.

Q: What about the total blood flow ([4]; 30 mg/kg in vehicle, i.v.) of the same molecule?
A: The total blood flow was “slightly improved total blood flow as compared to aspirin (p=0.055), but not as compared to vehicle”.

Q: With `O=C(O)CC/C=C\C[C@@H]1CO[C@H](c2ccccc2Cl)O[C@@H]1c1ccccc1O` [drawing 20] as the molecule, how does the half-life ([1]; male, Wistar, plasma, po, 10 mg/kg, p.o., 10 mg/kg, solid in capsules) read?
A: Its half-life is 1.58 ± 0.567 h.

Q: And the Tmax ([1]; male, Wistar, plasma, po, 10 mg/kg, p.o., 10 mg/kg, solid in capsules, read-out: Tmax (converted))?
A: The Tmax was 1.5 h.

Q: What about the “Cmax (ng/ml)/Dose (mg/kg)” value [1, 5] of the same molecule?
A: The value was 236 ± 63 (ng/ml)/Dose (mg/kg).

Q: What about the “Lin-AUC (0-∞) (ng•min/ml)/Dose (mg/kg)” value [1, 5] of the same molecule?
A: Its value is 27195 ± 4453 (ng•min/ml)/Dose (mg/kg).

Q: What about the T-Last [1, 5] of the same molecule?
A: Its T-Last is 6 to 12 h.

Q: Which half-life ([1]; male, Wistar, plasma, iv, 3.53 mg/kg, i.v., 3.53 mg/kg, DMSO/PEG400 (5%/95%)) does the source give for `COc1ccccc1[C@H]1OC(c2ccccc2Cl)OC[C@H]1C/C=C\CCC(=O)O` (stereo partly shown) [drawing 19] here?
A: The half-life was 3.03 ± 0.917 h.

Q: What about the Tmax ([1]; male, Wistar, plasma, iv, 3.53 mg/kg, i.v., 3.53 mg/kg, DMSO/PEG400 (5%/95%), read-out: Tmax (converted)) of the same molecule?
A: Its Tmax is 0.0833 h.

Q: And the “Cmax (ng/ml)/Dose (mg/kg)” value [1, 6]?
A: Its value is 554 ± 154 (ng/ml)/Dose (mg/kg).

Q: And the “Lin-AUC (0-∞) (ng•min/ml)/Dose (mg/kg)” value [1, 6]?
A: Its value is 17416 ± 1734 (ng•min/ml)/Dose (mg/kg).

Q: What about the T-Last [1, 6] of the same molecule?
A: Its T-Last is 8 to 12 h.

Q: For `CC(=O)Oc1ccccc1C(=O)O` [Aspirin], which occlusion time ([4]; 200 mg/kg i.v.) is on record?
A: The occlusion time was “no effect on the occlusion time”.

Q: And the total blood flow ([4]; 200 mg/kg i.v., versus vehicle)?
A: Its total blood flow is “no significant effect on the total blood flow”.

Q: For `O=C(O)CC/C=C\C[C@@H]1CO[C@H](c2ccccc2Cl)O[C@@H]1c1ccccc1O` [drawing 18], which half-life ([1]; male, Wistar, plasma, iv, 3.56 mg/kg, i.v., 3.56 mg/kg, DMSO/PEG400/PBS 1X (5%/30%/65%)) is on record?
A: The half-life was 0.767 ± 0.433 h.

Q: And the Tmax ([1]; male, Wistar, plasma, iv, 3.56 mg/kg, i.v., 3.56 mg/kg, DMSO/PEG400/PBS 1X (5%/30%/65%), read-out: Tmax (converted))?
A: Its Tmax is 0.0833 h.

Q: And the “Cmax (ng/ml)/Dose (mg/kg)” value [1, 7]?
A: Its value is 614 ± 68 (ng/ml)/Dose (mg/kg).

Q: What about the “Lin-AUC (0-∞) (ng•min/ml)/Dose (mg/kg)” value [1, 7] of the same molecule?
A: Its value is 12050 ± 1835 (ng•min/ml)/Dose (mg/kg).

Q: What about the T-Last [1, 7] of the same molecule?
A: Its T-Last is 3 to 6 h.
